Measured values as given in patent US6110962A, “11-aryl-benzo[B]naphtho[2,3-D]furans and 11-aryl-benzo[B]naphtho[2,3-D]thiophenes useful in the treatment of insulin resistance and hyperglycemia” (American Home Products Corporation, priority 1999, dated 2000).
Counter-ions that a name gives are not always drawn. Like-named read-outs stand apart in the source and are kept apart here.

What was measured:
diabetic (ob/ob) mice = experiment: Blood glucose lowering activity in diabetic (ob/ob) mice; assay type: in vivo, mouse; conditions: ob/ob mice; for change in vivo at 25 mg/kg / change in vivo at 100 mg/kg / change in vivo at 10 mg/kg / change in vivo at 5 mg/kg / change in vivo at 75 mg/kg / change in vivo at 50 mg/kg: Mus musculus, po; for change in vivo at 25 mg/kg / % Change Glucose from Vehicle / % Change Insulin from Vehicle: dose 25 mg/Kg; for % Change Glucose from Vehicle: 25 mg/kg
Procedure: The blood glucose lowering activity of representative compounds of this invention were determined in an in vivo standard procedure using diabetic (ob/ob) mice. The procedures used and results obtained are briefly described below. The non-insulin dependent diabetic (NIDDM) syndrome can be typically characterizes by obesity, hyperglycemia, abnormal insulin secretion, hyperinsulinemia and insulin resistance. […] In each test procedure, mice [Male or female ob/ob (C57 B1/6J) and their lean litermates (ob+ or +/+, Jackson Laboratories) ages 2 to 5 months (10 to 65 g)] of a similar age were randomized according to body weight into 4 groups of 10 mice. The mice were housed 5 per cage and are maintained on normal rodent chow with water ad libitum. Mice received test compound daily by gavage (suspended in 0.5 ml of 0.5% methyl cellulose); dissolved in the drinking water; or admixed in the diet. […] The dose is calculated based on the fed weekly body weight and is expressed as active moiety. […] Control mice received vehicle only. On the morning of Day 4, 7 or 14 two drops of blood (approximetly 50 ul) were collected into sodium fluoride containing tubes either from the tail vein or after decapitation. For those studies in which the compound was administered daily by gavage the blood samples were collected two hours after compound administration. The plasma was isolated by centrifugation and the concentration of glucose is measured enzymatically on an Abbott V. P. Analyzer. […] Analysis of variance followed by Dunett's Comparison Test (one-tailed) are used to estimate the significant difference between the plasma glucose values from the control group and the individual compound treated groups (CMS SAS Release 5.18).

Human recombinant PTP1B = biological target: T1, Human recombinant PTP1B (Homo sapiens, UniProt P18031); assay type: biochemical; conditions: read-out: IC50
T1 construct: made in house
T1 sequence (P18031 1-435): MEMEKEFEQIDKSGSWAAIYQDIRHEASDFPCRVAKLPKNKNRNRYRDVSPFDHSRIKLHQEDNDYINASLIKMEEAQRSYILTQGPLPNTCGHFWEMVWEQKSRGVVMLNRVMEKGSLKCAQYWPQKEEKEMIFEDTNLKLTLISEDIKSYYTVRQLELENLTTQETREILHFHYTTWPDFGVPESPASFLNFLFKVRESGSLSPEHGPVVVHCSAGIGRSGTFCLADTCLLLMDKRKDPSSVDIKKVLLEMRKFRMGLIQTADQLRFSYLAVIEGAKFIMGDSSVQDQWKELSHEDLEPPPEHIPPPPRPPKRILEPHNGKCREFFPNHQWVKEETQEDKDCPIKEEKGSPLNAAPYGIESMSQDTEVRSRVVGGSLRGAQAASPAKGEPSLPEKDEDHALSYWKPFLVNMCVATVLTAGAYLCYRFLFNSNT

[1] = test system: rat hepatic microsomal PTPases; conditions: PTPase activity, compound at 50 μM
[2] = 96 h, plasma glucose Day 4, 7 or 14, read-out: % Change Glucose from Vehicle
[3] = read-out: % Change Insulin from Vehicle

Row | SMILES | change in vivo at 25 mg/kg (diabetic (ob/ob) mice; [2]) [%] | change in vivo at 25 mg/kg (diabetic (ob/ob) mice; [3]) [%] | IC50 (Human recombinant PTP1B) [nM] | % Change from Control [1] [%] | change in vivo at 100 mg/kg (diabetic (ob/ob) mice; [2]) [%] | change in vivo at 100 mg/kg (diabetic (ob/ob) mice; [3]) [%] | other results
1 | O=C(O)C(Cc1ccc(F)cc1)Oc1c(Br)cc(-c2c3ccccc3c(Br)c3sc4ccccc4c23)cc1Br (stereo not drawn) [Example 155, 2-[2,6-Dibromo-4-(6-bromo-benzo[b]naphtho[2,3-d]thiophen-11-yl)-phenoxy]-3-(4-fluoro-phenyl)-propionic acid] | -28.9 | -63.2 | 56 | -82.25 |  |  | 
2 | COc1c2ccccc2c(-c2cc(Br)c(O[C@H](Cc3ccccc3)C(=O)O)c(Br)c2)c2c1sc1ccccc12 [Example 126, (R)-2-[2,6-Dibromo-4-(6-methoxy-benzo[b]naphtho[2,3-d]thiophen-11-yl)-phenoxy]-3-phenyl-propionic acid] | -28.6 | -62.4 | 298 | -78.77 |  |  | 
3 | O=C(O)[C@@H](Cc1ccccc1)Oc1c(Br)cc(-c2c3ccccc3c(Cl)c3sc4ccccc4c23)cc1Br [Example 127, (R)-2-{2,6-Dibromo-4-(6-chloro-benzo[b]naphtho[2,3-d]thiophen-11-yl)-phenoxy}-3-phenyl-propionic acid] | -18.8 | -76.5 | 64 | -37.08 |  |  | 
4 | N#Cc1c2ccccc2c(-c2cc(Br)c(O[C@@H](Cc3ccccc3)C(=O)O)c(Br)c2)c2c1sc1ccccc12 [Example 115, (S)-2-[2,6-Dibromo-4-(6-cyano-benzo[b]naphtho[2,3-d]thiophen-11-yl)-phenoxy]-3-phenyl-propionic acid] |  |  | 279 | -55.43 | -33.9 | 52 | 
5 | O=C(O)[C@@H](Cc1ccccc1)Oc1c(Br)cc(-c2c3ccccc3c(Sc3ccccc3)c3sc4ccccc4c23)cc1Br [Example 128, (R)-2-[2,6-Dibromo-4-(6-phenylsulfanyl-benzo[b]naphtho[2,3-d]thiophen-11-yl)-phenoxy]-3-phenyl-propionic acid] | 3.1 | -38.8 | 25 | -50.94 |  |  | 
6 | O=C(O)[C@@H](Cc1ccccc1)Oc1c(Br)cc(-c2c3ccccc3c(I)c3sc4ccccc4c23)cc1Br [Example 136] | -23.6 | -52 | 50 | -63.42 |  |  | 
7 | CC(C)c1cc(-c2c3ccccc3c(Br)c3sc4ccccc4c23)cc(C(C)C)c1OCC(=O)O [Example 89, [4-(6-Bromo-benzo[b]naphtho[2,3-d]thiophen-11-yl)-2,6-diisopropyl-phenoxy)-acetic acid] |  |  | 126 | -61.04 |  |  | change in vivo at 10 mg/kg (diabetic (ob/ob) mice; [2]): -24.9%
8 | O=C(O)[C@@H](Cc1ccccc1)Oc1c(Br)cc(-c2c3ccccc3c(Br)c3oc4ccccc4c23)cc1Br [Example 216, (R)-2-[2,6-Dibromo-4-(6-bromo-benzo[b]naphtho[2,3-d]furan-11-yl)-phenoxy]-3-phenyl-propionic acid] |  |  | 83 | -60.67 |  |  | change in vivo at 5 mg/kg (diabetic (ob/ob) mice; [2]): -14.8%; change in vivo at 10 mg/kg (diabetic (ob/ob) mice; [2]): -28.7%; change in vivo at 5 mg/kg (diabetic (ob/ob) mice; [3]): -55.9%; change in vivo at 10 mg/kg (diabetic (ob/ob) mice; [3]): -69.4%
9 | CCCCC(Oc1c(Br)cc(-c2c3ccccc3c(Br)c3sc4ccccc4c23)cc1Br)C(=O)O (stereo not drawn) [Example 123, 2-[2,6-Dibromo-4-(6-bromo-benzo[b]naphtho[2,3-d]thiophen-11-yl)-phenoxy]-hexanoic acid] |  |  | 82 | -87.44 |  |  | change in vivo at 75 mg/kg (diabetic (ob/ob) mice; [2]): -24%; change in vivo at 75 mg/kg (diabetic (ob/ob) mice; [3]): -40.9%
10 | O=C(O)[C@H](Cc1ccccc1)Oc1c(Br)cc(-c2c3ccccc3c(Br)c3sc4ccccc4c23)cc1Br [Example 111, (S)-2-[2,6-Dibromo-4-(6-bromo-benzo[b]naphtho[2,3-d]thiophen-11-yl)-phenoxy]-3-phenyl-propionic acid] |  |  | 62 | -76.45 | -39.4 | -17.9 | 
11 | C[C@@H](Oc1c(Br)cc(-c2c3ccccc3c(Sc3ccccc3)c3sc4ccccc4c23)cc1Br)C(=O)O [Example 129, (R)-2-[2,6-Dibromo-4-(6-phenylsulfanyl-benzo[b]naphthor[2,3-d]thiophen-11-yl)-phenoxy]-propionic acid] | -14.9 | -54.6 | 46 | -59.03 |  |  | 
12 | O=C(O)C(Cc1c[nH]c2ccccc12)Oc1c(Br)cc(-c2c3ccccc3c(Br)c3sc4ccccc4c23)cc1Br (racemic) [Example 122, (R,S)-2-[2.6-Dibromo-4-(6-bromo-benzo[b]naphtho[2,3-d]thiophen-11-yl)-phenoxy]-3-(1 H-indol-3-yl)-propionic acid] |  |  | 36 | -85.46 | -28.1 | -37.4 | 
13 | O=C(O)[C@@H](Cc1ccccc1)Oc1c(Br)cc(-c2c3ccccc3c(Br)c3sc4ccccc4c23)cc1Br [Example 109, (R)-2-[2,6-Dibromo-4-(6-bromo-benzo[b]naphtho[2,3-d]thiophen-11-yl)-phenoxy]-3-phenyl-propionic acid, sodium salt] |  |  | 71 |  |  |  | % Change Glucose from Vehicle (diabetic (ob/ob) mice; plasma glucose Day 4, 7 or 14, sodium salt): -26.31%; % Change Insulin from Vehicle (diabetic (ob/ob) mice; sodium salt): -71.64%; % Change from Control ([1]; sodium salt, 50 µM): -66.67%
14 | O=C(O)[C@@H](Cc1ccccc1)Oc1c(Br)cc(-c2c3ccccc3c(Br)c3sc4ccccc4c23)cc1Br [Example 108, (R)-2-[2,6-Dibromo-4-(6-bromo-benzo[b]naphtho[2,3-d]thiophen-11-yl)-phenoxy]-3-phenyl-propionic acid] |  |  | 61 |  | -45.8 | -72.6 | change in vivo at 10 mg/kg (diabetic (ob/ob) mice; [2]): -26.1%; change in vivo at 50 mg/kg (diabetic (ob/ob) mice; [2]): -34.8%; change in vivo at 75 mg/kg (diabetic (ob/ob) mice; [2]): -49.7%; change in vivo at 10 mg/kg (diabetic (ob/ob) mice; [3]): -30.3%; change in vivo at 50 mg/kg (diabetic (ob/ob) mice; [3]): -84.8%; change in vivo at 75 mg/kg (diabetic (ob/ob) mice; [3]): -89.6%; % Change Insulin from Vehicle (diabetic (ob/ob) mice): -71.03%; % Change Glucose from Vehicle (diabetic (ob/ob) mice; plasma glucose Day 4, 7 or 14): -25.66%; % Change from Control ([1]; 50 µM): -72.94%
15 | Cc1cc(-c2c3ccccc3c(C)c3sc4ccccc4c23)cc(C)c1O[C@H](Cc1ccccc1)C(=O)O [Example 138, (R)-2-[2,6-Dimethyl-4-(6-methyl-benzo[b]naphtho[2,3-d]thiophen-11-yl)-phenoxy]-3-phenyl-propionic acid] | -13.8 | -91.9 | 636 | -69.13 |  |  | 
16 | C[C@@H](Oc1c(Br)cc(-c2c3ccccc3c(Br)c3sc4ccccc4c23)cc1Br)C(=O)O [Example 121, (R)-2-[2,6-Dibromo-4-(6-bromo-benzo[b]naphtho[2,3-d]thiophen-11-yl)-phenoxy]-propionic acid] |  |  | 184 | -74.70 | -54.6 | -87.8 | change in vivo at 10 mg/kg (diabetic (ob/ob) mice; [2]): 1.37%; change in vivo at 10 mg/kg (diabetic (ob/ob) mice; [3]): -41.8%
